Data published in the Deep4Chem optical property database.
Each block holds one compound with its values, some of them ahead of it.

Experiment: solvent given as SMILES

fluorescence lifetime (in CCCCCC): 53.7 ns
fluorescence lifetime (in CO): 71.8 ns
fluorescence lifetime (in ClCCl): 65.5 ns
Structure (SMILES): C[Si](C)(C)c1ccc2ccc3c([Si](C)(C)C)ccc4ccc1c2c43

fluorescence lifetime (in CC#N): 4.03 ns
fluorescence lifetime (in CS(C)=O): 3.64 ns
fluorescence lifetime (in ClC(Cl)Cl): 3.93 ns
Structure (SMILES): C#CCn1c2ccccc2c2cc(/C=C/c3cc(C)c4n3[B-](F)(F)[N+]3=C(C)C=C(C)C3=C4c3ccc(I)cc3)ccc21

fluorescence lifetime (in C1CCCCC1): 2.4 ns
fluorescence lifetime (in CC#N): 3.5 ns
fluorescence lifetime (in ClCCl): 3.3 ns
Structure (SMILES): O=S1c2ccccc2-c2cc(-c3c4ccccc4cc4ccccc34)ccc21 (centres undefined)

fluorescence lifetime (in ClCCl): 1.76 ns
Structure (SMILES): CCCCn1c(-c2ccc(-c3nnc(-c4ccccc4)o3)cc2)nc(-c2ccccc2)c1-c1ccccc1

fluorescence lifetime (in ClCCl): 1.17 ns
Structure (SMILES): C(=C\c1cc(-c2ccc3ccccc3c2)c(/C=C/c2ccc(N(c3ccccc3)c3ccccc3)cc2)cc1-c1ccc2ccccc2c1)/c1ccc(N(c2ccccc2)c2ccccc2)cc1

fluorescence lifetime (in ClCCl): 4.71 ns
Structure (SMILES): c1ccc(N(c2ccccc2)c2ccc3c4cccc5c(N(c6ccccc6)c6ccccc6)ccc(c6cccc2c63)c54)cc1

fluorescence lifetime (in ClCCl): 1.04 ns
Structure (SMILES): CCCc1c(C(=O)c2ccc3c4c(cccc24)-c2cccc4c2C3CC=C4)c2ccc3cccc4c5cccc6ccc1c(c65)c2c34 (centres undefined)

fluorescence lifetime (in ClCCl): 5.4 ns
Structure (SMILES): CCCCCCOc1cc(C=C2C(=O)c3ccccc3C2=O)c(OCCCCCC)cc1C=C1C(=O)c2ccccc2C1=O

fluorescence lifetime (in C1CCCCC1): 0.1 ns
fluorescence lifetime (in CC#N): 0.16 ns
fluorescence lifetime (in CO): 0.0052 ns
fluorescence lifetime (in CS(C)=O): 0.1 ns
fluorescence lifetime (in c1ccccc1): 0.9 ns
Structure (SMILES): CN(C)c1ccc(C(=O)c2ccccc2)cc1

fluorescence lifetime (in ClCCl): 2.02 ns
Structure (SMILES): ClP1(Cl)=N[P@@](Cl)(Oc2ccc3ccc4cccc5ccc2c3c45)=N[P@@](Cl)(Oc2ccc3ccc4cccc5ccc2c3c45)=N1

fluorescence lifetime (in ClCCl): 3.6 ns
Structure (SMILES): Cc1ccc(C(=O)c2c(C)c3ccc4cccc5c6cccc7ccc2c(c76)c3c45)cc1

fluorescence lifetime (in ClC(Cl)Cl): 8.46 ns
Structure (SMILES): CCN(CC)c1ccc2cc(-c3ccc(-c4ccc5ccc6c(-c7ccc(-c8cc9ccc(N(CC)CC)cc9oc8=O)cc7)ccc7ccc4c5c76)cc3)c(=O)oc2c1

The remaining lines, values behind:

Structure (SMILES): Cc1c[nH]c(=O)[nH]c1=O
fluorescence lifetime (in CC#N): 0.0002 ns

Structure (SMILES): CC1(C)C(/C=C/C2=C(Oc3ccc(CCN=C=S)cc3Br)C(=C/C=C3/N(CCCS(=O)(=O)[O-])c4ccccc4C3(C)C)/CCC2)=[N+](CCCS(=O)(=O)[O-])c2ccccc21
fluorescence lifetime (in CO): 0.912 ns

Structure (SMILES): CC(=O)[B-]1(C(C)=O)OC(C)=CC(c2ccc3ccccc3c2)=[O+]1
fluorescence lifetime (in CC#N): 13.6 ns
fluorescence lifetime (in ClC(Cl)(Cl)Cl): 1.6 ns

Structure (SMILES): Cc1cc2ccccc2cc1C
fluorescence lifetime (in C1CCCCC1): 133 ns

Structure (SMILES): CCCCCCN1C(=O)c2cccc3c(-c4ccc(Cl)s4)ccc(c23)C1=O
fluorescence lifetime (in ClC(Cl)Cl): 0.0093 ns

Structure (SMILES): Cc1ccc(NC(=O)c2sc(Br)nc2C)cc1
fluorescence lifetime (in CO): 0.22 ns
fluorescence lifetime (in ClC(Cl)Cl): 0.12 ns

Structure (SMILES): Cn1c(=O)cc(C(=O)c2ccccc2)c2sc(-c3ccc(C(F)(F)F)cc3)cc21
fluorescence lifetime (in ClCCl): 1.66 ns

Structure (SMILES): Cc1cc(N(C)C)cc(C)c1/C=C/C=C/c1ccc(C#N)cc1
fluorescence lifetime (in C1CCOC1): 0.51 ns
fluorescence lifetime (in CC#N): 0.61 ns
fluorescence lifetime (in CCCCCC): 0.29 ns
fluorescence lifetime (in CCCCOCCCC): 0.38 ns
fluorescence lifetime (in CCO): 0.58 ns
fluorescence lifetime (in CCOCC): 0.49 ns

Structure (SMILES): Cc1ccccc1-c1ccccc1C
fluorescence lifetime (in C1CCCCC1): 2.5 ns

Structure (SMILES): CN1CCc2cc(C3=Cc4cccc[n+]4[B-](F)(F)O3)ccc21
fluorescence lifetime (in ClC(Cl)Cl): 3.11 ns

Structure (SMILES): COc1cnc(-c2cc[n+](C3=C(F)C(F)(F)C(F)(F)[C-]3F)cc2)s1
fluorescence lifetime (in CC#N): 2.3 ns
fluorescence lifetime (in CC(C)=O): 2.3 ns
fluorescence lifetime (in CCO): 1.04 ns
fluorescence lifetime (in CN(C)C=O): 0.41 ns
fluorescence lifetime (in CO): 0.54 ns
fluorescence lifetime (in CS(C)=O): 0.22 ns
fluorescence lifetime (in ClC(Cl)Cl): 2.85 ns
fluorescence lifetime (in ClCCl): 2.81 ns

Structure (SMILES): C(=C\c1ccc(-n2c3ccccc3c3ccccc32)cc1)/c1ccc(-c2ccc(/C=C/c3ccc(-n4c5ccccc5c5ccccc54)cc3)cc2)cc1
fluorescence lifetime (in Cc1ccccc1): 0.87 ns
fluorescence lifetime (in c1ccc2c(c1)c1ccccc1n2-c1ccc(-c2ccc(-n3c4ccccc4c4ccccc43)cc2)cc1): 1.3 ns

Structure (SMILES): Cc1ccc(-n2c(C)ccc2C)cc1
fluorescence lifetime (in CC#N): 4.4 ns

Structure (SMILES): c1csc(-c2ccc(-c3cccs3)c3nsnc23)c1
fluorescence lifetime (in ClC(Cl)Cl): 10.2 ns

Structure (SMILES): CCCCCCCCc1ccc(-c2ccc(/C=C(\C#N)c3ccc(-c4cccc5cccc(-c6ccc(/C(C#N)=C/c7ccc(-c8ccc(CCCCCCCC)cc8)cc7)cc6)c45)cc3)cc2)cc1
fluorescence lifetime (in Cc1ccccc1): 4.9 ns

Structure (SMILES): CCN(CC)c1ccc(-c2nc3c(c4c2-c2ccccc2CC4)-c2ccccc2CC3)cc1
fluorescence lifetime (in C1CCOC1): 1.06 ns
fluorescence lifetime (in CC#N): 0.68 ns
fluorescence lifetime (in CCOC(C)=O): 0.85 ns
fluorescence lifetime (in CO): 0.68 ns
fluorescence lifetime (in CS(C)=O): 1.02 ns
fluorescence lifetime (in Cc1ccccc1): 0.8 ns
fluorescence lifetime (in ClCCl): 1.22 ns

Structure (SMILES): N#Cc1ccc2nc3c(=O)[nH]c(=O)[nH]c3nc2c1
fluorescence lifetime (in ClCCCl): 0.16 ns

Structure (SMILES): CC(C)[Si](C#Cc1ccc(C#C[Si](C(C)C)(C(C)C)C(C)C)c2nc3ccccc3nc12)(C(C)C)C(C)C
fluorescence lifetime (in ClCCl): 0.37 ns

Structure (SMILES): N#Cc1c(-n2c3ccccc3c3ccccc32)c(-n2c3ccccc3c3ccccc32)c(-n2c3ccccc3c3ccccc32)c(-n2c3ccc(-c4ccccc4)cc3c3cc(-c4ccccc4)ccc32)c1-n1c2ccccc2c2ccccc21
fluorescence lifetime (in Cc1ccccc1): 7 ns

Structure (SMILES): c1ccc(-n2cccc2)cc1
fluorescence lifetime (in CC#N): 3.6 ns
fluorescence lifetime (in CCCCCC): 3.5 ns

Structure (SMILES): c1ccc(N2c3ccc4ccccc4c3-c3c4ccccc4cc[n+]3[B-]2(c2ccccc2)c2ccccc2)cc1
fluorescence lifetime (in Cc1ccccc1): 6.31 ns

Structure (SMILES): CC(C)[Si](C#Cc1cc2c(C#C[Si](C(C)C)(C(C)C)C(C)C)c(C#C[Si](C(C)C)(C(C)C)C(C)C)c3cc(C#C[Si](C(C)C)(C(C)C)C(C)C)cc4c(C#C[Si](C(C)C)(C(C)C)C(C)C)c(C#C[Si](C(C)C)(C(C)C)C(C)C)c(c1)c2c34)(C(C)C)C(C)C
fluorescence lifetime (in ClCCl): 14.1 ns

Structure (SMILES): COC(=O)c1[nH]c(-c2ccccc2)c2nnc3ccc(OC)cc3c12
fluorescence lifetime (in ClCCl): 2.23 ns

Structure (SMILES): CC(=O)O[B-]1(OC(C)=O)OC(/C=C/C=C/c2ccccc2)=CC(/C=C/C=C/c2ccccc2)=[O+]1
fluorescence lifetime (in C1CCOC1): 2.38 ns
fluorescence lifetime (in CC#N): 1.81 ns
fluorescence lifetime (in CC(C)=O): 1.77 ns
fluorescence lifetime (in CS(C)=O): 2.03 ns
fluorescence lifetime (in Cc1ccccc1): 2.57 ns
fluorescence lifetime (in ClC(Cl)Cl): 1.93 ns
fluorescence lifetime (in ClCCl): 1.84 ns
